Tested on: PDOTS
Assay: Bead-based cytokine profiling of PDOTS after ex vivo checkpoint blockade
Assay type: cell-based, human
Protocol: Fresh tumor specimens (murine and human patients) were received in media (DMEM) on ice and minced in a 10 cm dish (on ice) using sterile forceps and scalpel. Minced tumor was resuspended in DMEM ([…], […] sodium pyruvate, 1:100 penicillin-streptomycin) (Corning CellGro, Manassas, Va.) +10% FBS (Gemini Bio-Products, West Sacramento, Calif.), 100 U/mL collagenase type IV (Life Technologies, Carlsbad, Calif.), and 15 mM HEPES (Life Technologies, Carlsbad, Calif.), except for CT26 tumors that were prepared in RPMI. Samples were pelleted and resuspended in 10-20 mL media. Red blood cells were removed from visibly bloody samples using RBC Lysis Buffer (Boston Bio-Products, Ashland, Mass.). […]
Two multiplex assays were performed utilizing a bead-based immunoassay approach, the Bio-Plex Pro™ Human Cytokine 40-plex Assay (Cat #171AK99MR2) and Bio-Plex Pro™ Mouse Cytokine Panel 1, 23-plex (Cat #M60009RDPD) on a Bio-plex 200 system (Cat #171000201). […] Fold changes relative to the MDOT/PDOT control were calculated and plotted as log 2FC. Lower and upper limits of quantitation (LLOQ/ULOQ) were imputed from standard curves for cytokines above or below detection. […]

## CTLA-4 blockade: PDOTS were treated with anti-CTLA-4 (ipilimumab, 50 μg/mL)
Day 3, ipilimumab 50 μg/mL alone or with pembrolizumab 250 μg/mL
  CCL19/CXCL13 induction in PDOTS: comparatively minimal

## PD-1 blockade: PDOTS were treated with anti-PD-1 (pembrolizumab, 250 μg/mL)
Day 3 cytokine release, n=28, pembrolizumab 250 μg/mL
  PDOTS samples with upregulation of CCL19 and CXCL13: 23/28
